Where a SMILES comes first, the peptide text is derived from it. Where no end group is shown, it is not given here.
Key:
[1] = system: Caco-2/TC7 cell barrier (human intestinal barrier model); conditions: for Passage of the intact peptide across the Caco-2 monolayer / Time of first appearance of the intact peptide in the basal compartment: 5 mM apical; for Passage of the intact peptide across the Caco-2 monolayer: basal samples 5-120 min, MRM; for Intact peptide or fragments present in the apical compartment, intestinal barrier / Intact peptide or fragments present in the basal compartment, intestinal barrier: peptide applied apically at 5 mM, end of the 120 min passage test, LC-MS/MS
Description: For the experiment, they were seeded at the density of 60 × 10^3 cells cm^−2 into cell culture inserts in 6-well culture plates and grown for 21 days.
The day of the trans-intestinal transport test, growth media were removed, and cells were first rinsed with the transport medium, HBSS-Hepes buffer supplemented with CaCl2 (2.5 mM final) and MgCl2 (0.5 mM final) in the apical (1 mL) and basolateral chambers (2.5 mL), then pre-incubated for 30 min with the transport medium. All incubations were performed at 37°C, 10% CO2 atmosphere. To control the integrity of the Caco-2/TC7 cell barrier, the paracellular transport marker lucifer yellow (LY, 100 µM final) was applied apically into each well and its transport into the basolateral chamber was monitored by spectrofluorescence. Each hemorphin was diluted for a final concentration of 5 mM in transport medium-LY and applied to the apical chamber at t0. In parallel, control wells were incubated with transport medium-LY only and all conditions were tested in triplicate. At t5, 15, 30, and 60 min, 100 µL samples were collected in the basal chamber and replaced by the same volume of transport medium. At t120 min, all remaining media in basal and apical chambers were collected and all samples were stored at −80°C. The rate of LY transport was determined by fluorescence readings (ex 485/em 530 nm) at each time point on the spectrofluorometer Safas Xenius XC (Safas Monaco, Monaco, France) and calculating the apparent permeability coefficient (Papp) as follows: (ΔQ/Δt) × (Vb/(A × C0)), where ΔQ is the change in LY concentration in the basal chamber (μM); Δt is the transport duration (s); Vb is the volume in the basal chamber (mL); A is the surface area of the insert/transwell membrane (cm^2); and C0 is the initial concentration of LY applied to the apical chamber (μM).
LC-MS/MS analysis was performed on a UFLC-XR device (Shimadzu, Kyoto, Japan) coupled to a QTRAP® 5500 MS/MS hybrid system triple quadrupole/linear ion trap mass spectrometer (AB Sciex, Foster City, CA, USA) equipped with a Turbo VTM ion source. Instrument control, data acquisition, and processing were performed using Analyst 1.5.2 software. The reverse phase liquid chromatography separation was carried out on a Kromasil C18 column (100 × 2.1 mm, 3.5 µm) with guard cartridge from AIT-France (Houilles, France). The injection volume was 2 µL. Elution was performed at a flow rate of 200 µL min^−1 with water-formic acid 0.1% as eluent A and acetonitrile-formic acid 0.1% as eluent B. The injection duty cycle was 10 min, starting with a 1 min plateau with 25% B, followed by a linear gradient from 25 B to 60% B in 4 min, a 1 min plateau with 60% B, 1 min linear gradient from 60 to 25% B, and 3 min at 25% B to recondition the column. MS analysis was carried out in positive ionization mode. The ion source parameters were optimized and set as follows: ion spray voltage, 5,500 V; nebulizer gas (air) and curtain gas (nitrogen) flows, 50 and 25 psi, respectively; source temperature, 550°C with the auxiliary gas flow (air) set at 50 psi; declustering potential (DP), 100 V; and collision cell exit potential, 25 V. The mass spectrometer was operated at a unit resolution for both Q1 and Q3 with a dwell time of 90 ms in each transition.
The presence of each intact hemorphin and potential fragments were tracked by a combination of multiple reaction monitoring (MRM) and pseudo-MRM transitions.

[2] = background statement, no reference printed for it; cited from earlier work
[3] = system: FK-induced intracellular cAMP in Caco-2 cells; assay: cAMP determination assay in forskolin-stimulated Caco-2 cells; assay type: cell-based, human; conditions: 1 µM alone, 15 min
Description: For the cAMP determination assay and the gene expression study, the cell line used was the Caco-2 cell line purchased from Sigma-Aldrich (Steinheim, Germany). Cells were grown at 37°C, 5% CO2 atmosphere in Dulbecco’s modified Eagle’s Medium (DMEM, 4.5 g L^−1 glucose) supplemented with 10% FBS, 2 mM L-glutamine, 100 U mL^−1 penicillin, and 100 µg mL^−1 streptomycin (complete DMEM) until use. Caco-2 from passages 34–37 were used. For the transport studies, the cell lines used and the culture protocols conditions are described in detail in dedicated subsections below.
The effect of the five opioid peptides/hemorphins on the cAMP production was assessed in vitro in Caco-2 cells. Each hemorphin was applied on Caco-2 cells stimulated or not by FK, an activator of the cAMP pathway, in order to evaluate the ability of the peptides to decrease intracellular cAMP elevation induced by FK. […] At the end of the 15 min incubation, cells were immediately rinsed three times with PBS and plates were stored at −80°C until intracellular cAMP levels determination with the Mouse/Rat cAMP Parameter Assay Kit according to the manufacturer’s guidelines. cAMP levels were normalized by the total protein concentration determined by the Pierce BCA Protein Assay Kit for each sample and expressed as a percentage of the reference condition FK only.

[4] = system: mu- and kappa-transfected CHO-cells; design: method as in Fukuda et al. 45; conditions: ref Fukuda et al. 45; cited from earlier work
[5] = system: brain-like endothelial cells (BLEC) co-cultured with bovine brain pericytes (human BBB model); conditions: peptide applied apically at 100 µM; table footnote says end of 120 min test, Figure 4 says 30 min
Description: The brain-like endothelial cell model has previously been described in detail ([28]). All the sample donors had given their written informed consent, in compliance with French legislation and the 2013 version of the Declaration of Helsinki. The sample collection was approved by the local investigational review board (Bethune Maternity Hospital Béthune, France). Briefly, this human model consists in isolating CD34+ cells from umbilical cord blood. These cells are then cultured in endothelial cell medium supplemented with 20% FCS for 15–20 days. After this period, cells are differentiated into endothelial cells. After a trypsinization step, they are seeded on matrigel coated-transwell inserts in 12-well culture plates, and subsequently cultured with brain pericytes, isolated from bovine brain capillaries. After 6 days of co-culture, human endothelial cells acquire the BBB phenotype, and are then named BLECs.
(§1) The day of the transport test, the same procedure as for the intestinal passage assay was applied except that the transwell inserts were transferred to a new 12-well culture plate at each time point, 30, 60, 90, and 120 min. All incubations were performed at 37°C, 5% CO2 atmosphere with slight agitations. The transport medium consisted in Ringer-Hepes solution (150 mM NaCl, 5.2 mM KCl, 2.2 mM CaCl2, 0.2 mM MgCl2⋅6H2O, 6 mM NaHCO3, 5 mM HEPES, pH 7.4). […] A test was performed without cells to insure that the filter membrane was not preventing the passage of the peptides.
The injection volume was 2 µL.

[6] = system: BLEC blood-brain barrier model; conditions: hemorphin 100 µM apical; Dunnett's post hoc
Description: as §1

Caco-2/TC7 cell barrier = conditions: LY 100 µM with hemorphin 5 mM apical
Description: The day of the trans-intestinal transport test, growth media were removed, and cells were first rinsed with the transport medium, HBSS-Hepes buffer supplemented with CaCl2 (2.5 mM final) and MgCl2 (0.5 mM final) in the apical (1 mL) and basolateral chambers (2.5 mL), then pre-incubated for 30 min with the transport medium. All incubations were performed at 37°C, 10% CO2 atmosphere. To control the integrity of the Caco-2/TC7 cell barrier, the paracellular transport marker lucifer yellow (LY, 100 µM final) was applied apically into each well and its transport into the basolateral chamber was monitored by spectrofluorescence. Each hemorphin was diluted for a final concentration of 5 mM in transport medium-LY and applied to the apical chamber at t0. […] The rate of LY transport was determined by fluorescence readings (ex 485/em 530 nm) at each time point on the spectrofluorometer Safas Xenius XC (Safas Monaco, Monaco, France) and calculating the apparent permeability coefficient (Papp) as follows: (ΔQ/Δt) × (Vb/(A × C0)), where ΔQ is the change in LY concentration in the basal chamber (μM); Δt is the transport duration (s); Vb is the volume in the basal chamber (mL); A is the surface area of the insert/transwell membrane (cm^2); and C0 is the initial concentration of LY applied to the apical chamber (μM).

physchem = conditions: pH 7.4
blood-brain barrier = conditions: 125I-H7; rats; cited from earlier work
caco-2 cell monolayer = system: caco-2 cell monolayer; design: method as in PMID 18468445; conditions: cited from earlier work

Molecule | Intact peptide or fragments present in the basal compartment, BBB [5] | Passage of the intact peptide across the Caco-2 monolayer [1] | Time of first appearance of the intact peptide in the basal compartment ([1]; Caco-2 model) [min] | Intact peptide or fragments present in the apical compartment, intestinal barrier [1] | Intact peptide or fragments present in the basal compartment, intestinal barrier [1] | also measured
C[C@@H](O)[C@H](NC(=O)[C@H](Cc1c[nH]c2ccccc12)NC(=O)[C@@H]1CCCN1C(=O)[C@@H](N)Cc1ccc(O)cc1)C(=O)O [H4, YPWT] (H-YPWT-OH) |  |  |  |  |  | Time of first identification of the fragment in basal samples ([1]; fragment released from hemorphins applied at 5 mM, Caco-2 model): 5 min; Stability in plasma [2]: very stable in plasma
C=CCN1CC[C@]23c4c5ccc(O)c4O[C@H]2C(=O)CC[C@@]3(O)[C@H]1C5 [naloxone] |  |  |  |  |  | Intracellular cAMP, % of FK levels [3]: 68.42 ± 6.87%; Activity at opioid receptors in transfected CHO-cells [4]: partial agonist activity
LLVVYPWT [LLVV-H4, LLVV-YPWT] | H4, VV-H4, LVV-H4, LLVV-H4 | not detected |  |  |  | Papp(LY) compared to control, BBB model [6]: 133.2 ± 16.44%; Papp(LY) compared to control, intestinal barrier model (Caco-2/TC7 cell barrier): decreased compared to control (non-significant); solubility (physchem): > 50 µM
LVVYPWT [LVV-H4, LVV-YPWT] | H4, VV-H4, LVV-H4 | clearly able to cross intact the cell monolayer | 60 | LVV-H4, VV-H4, H4 | H4, VV-H4, LVV-H4 | 
VVYPWT [VV-H4, VV-YPWT] | H4, VV-H4 | clearly able to cross intact the cell monolayer | 60 | VV-H4, H4 | H4, VV-H4 | Papp(LY) compared to control, BBB model [6]: 142.2 ± 26.71%
VVYPWTQRF [VV-H7, VV-YPWTQRF] | H4, VV-H7, VV-H4, H7, H3, H5 | found in traces |  | VV-H7, VV-H4, H7, H6 | H4, VV-H7, H7, H3 | Papp(LY) compared to control, intestinal barrier model (Caco-2/TC7 cell barrier): decreased compared to control (non-significant)
YPWTQRF [H7, YPWTQRF] |  | clearly able to cross intact the cell monolayer | 5 |  |  | Time to BBB passage after intra-femoral artery injection (blood-brain barrier): ≤ 15 min
endomorphine-1 |  |  |  |  |  | Permeability through a caco-2 cell monolayer (caco-2 cell monolayer): low permeability

Source: article PMC5903475, “Food-Derived Hemorphins Cross Intestinal and Blood–Brain Barriers In Vitro” (Frontiers in Endocrinology, 2018)
